The record followed here is the NIST ThermoML archive (doi:10.1016/j.fluid.2005.09.012).

± gives the expanded uncertainty stated by the source.

Series [1] in a line: refractive index (Na D-line) (dimensionless). The conditions noted are these: 293.15 K; 101.33 kPa; Liquid.
For series [2] the following is noted: Liquid; for mass density: 293.15 K, 101.33 kPa.

As for `ClC=C(Cl)Cl` [trichloroethene], the refractive index in series [1] was found to be 1.4782 ± 0.0017. Also, in series [2], the mass density was 1464 ± 4.1 kg/m3. Further, the “vapor or sublimation pressure” value in series [2] (357.95 K) is on record as 95.75 ± 9 kPa.

For the compound `ClC(Cl)=C(Cl)Cl` [tetrachloroethene], the refractive index in series [1] turned out to be 1.505 ± 0.0017. Moreover, the mass density in series [2] stood at 1625 ± 4.6 kg/m3. Also, the “vapor or sublimation pressure” value in series [2] (392.25 K) is 95.75 ± 9 kPa.

As to `CCCCCCC` [heptane], in series [1], the refractive index amounted to 1.3876 ± 0.0017. Moreover, the mass density in series [2] stood at 683.8 ± 1.5 kg/m3. Further, the “vapor or sublimation pressure” value in series [2] (369.75 K) amounted to 95.75 ± 9 kPa.

With `Cc1ccccc1O` [2-methylphenol], the refractive index in series [1] was 1.5467 ± 0.0017. Moreover, in series [2], the mass density stood at 1046 ± 2.7 kg/m3. In addition, in series [2] (461.85 K), the “vapor or sublimation pressure” value is given as 95.75 ± 9.6 kPa.

`ClC(Cl)C(Cl)Cl` [1,1,2,2-tetrachloroethane]: in series [1], the refractive index was found to be 1.494 ± 0.0017. Also, the mass density in series [2] is 1593 ± 4.5 kg/m3. Further, the “vapor or sublimation pressure” value in series [2] (417.35 K) is 95.75 ± 9 kPa.

As to `Cc1ccccc1C` [1,2-dimethylbenzene], the refractive index in series [1] came out at 1.5055 ± 0.0017. Further, in series [2], the mass density is recorded as 880.1 ± 2.2 kg/m3. In addition, the “vapor or sublimation pressure” value in series [2] (415.55 K) was determined as 95.75 ± 9 kPa.

As for `Cc1ccc(C)cc1` [1,4-dimethylbenzene], the refractive index in series [1] was found to be 1.4858 ± 0.0017. Besides, the mass density in series [2] amounted to 861 ± 2.1 kg/m3. The “vapor or sublimation pressure” value in series [2] (409.35 K) amounted to 95.75 ± 9 kPa.

As for `Cc1cccc(C)c1` [1,3-dimethylbenzene], in series [1], the refractive index amounted to 1.4972 ± 0.0017. Besides, the mass density in series [2] is recorded as 864.4 ± 2.1 kg/m3. Besides, the “vapor or sublimation pressure” value in series [2] (410.35 K) is on record as 95.75 ± 9 kPa.

Take `ClCCCl` [1,2-dichloroethane]: the refractive index in series [1] stood at 1.4196 ± 0.0017. Further, in series [2], the mass density is 1252.9 ± 3.4 kg/m3. For the same compound, in series [2] (355.25 K), the “vapor or sublimation pressure” value turned out to be 95.75 ± 9 kPa.

Usually refractive index stands for a measure of how strongly the sample bends light. A word on the mass density: it is mass per unit of volume. By vapor or sublimation pressure is commonly meant the pressure of vapour in equilibrium with the condensed phase.
